From patent US4469681A, “Method and system for the controlled release of biologically active substances to a body fluid” (The Rockefeller University, priority 1981, dated 1984)

Columns and labels:
[1] = test system: blood glucose; experiment: Blood-glucose depression assay modified from the U.S. Pharmacopeia; format: in vivo; details: 60 minutes after injection; for Blood glucose depression: 0.1 mg protein/100 gm body weight subcutaneous after overnight fast
Text: weight by subcutaneous injection.
injection using a Beckman Glucose Analyzer 2.

[2] = molecular target: Concanavalin A (Canavalia ensiformis, UniProt P02866); experiment: Binding to and glucose displacement from immobilized Concanavalin A columns; design: species or system Jack Bean
Method: At the point indicated by the arrow, 0.2M glucose in the column buffer was begun. Fractions (2.0 ml) were collected at a flow rate of 10-15 ml/h.
Displacement of hormone was accomplished using 1.0 ml pulses of column buffer containing varying amounts of glucose. Glucose content is indicated over the appropriate arrows. Fractions (1.7 ml) were collected at a flow rate of 10-15 ml/h.

**Q.** With “Control insulin: porcine insulin (Lilly), unmodified” as the substance, how does the Blood glucose depression ([1]; Animal A) read?
**A.** 75 mg %

**Q.** And the Blood glucose depression ([1]; Animal B)?
**A.** 70 mg %

**Q.** What about the Blood glucose depression ([1]; Animal C) of the same substance?
**A.** 79 mg %

**Q.** And the Blood glucose depression ([1]; Animal D)?
**A.** 79 mg %

**Q.** And the Blood glucose depression ([1]; Animal E)?
**A.** 64 mg %

**Q.** What about the Blood glucose depression ([1]; Animal F) of the same substance?
**A.** 73 mg %

**Q.** And the “Blood glucose depression, Mean ± S.E.M.” value ([1]; Mean of animals A-F, 0.1 mg protein/100 gm body weight subcutaneous)?
**A.** 73.33 ± 2.35 mg %

**Q.** What about the “Binding to immobilized Concanavalin A” value ([2]; 20 mg applied to column, buffer 1 mM MgCl2, 1 mM CaCl2, 50 mM NaCl, 25 mM sodium phosphate, pH 7.4) of the same substance?
**A.** did not bind

**Q.** And the “Displacement from Concanavalin A binding sites by glucose” value ([2]; 0.2M glucose in column buffer, 1,000:1 molar excess of glucose)?
**A.** none was eluted by the addition of glucose
